One assay addresses T1, GLP-1 receptor (Homo sapiens, UniProt P43220).
T1 construct: expressed in transfected cells; host or cells: HEK293
The assay is described as follows: cAMP induction, firefly luciferase reporter assay, GLP-1 receptor. It counts as cell-based. How it is done:
(§1) The ability of each peptide to induce cAMP was measured in a firefly luciferase-based reporter assay.
(§2) At the end of the incubation, 100 μL of LucLite luminescence substrate reagent (Perkin Elmer, Wellesley, Mass.) were added to each well. The plate was shaken briefly, incubated 10 min in the dark and light output was measured on MicroBeta-1450 liquid scintillation counter (Perkin-Elmer, Wellesley, Mass.).
On the technique in general: In a reporter assay the amount or activity of a reporter protein is the signal.

A further assay has as its target T2, glucagon receptor (Homo sapiens, UniProt P47871).
T2 construct: expressed in transfected cells; host or cells: HEK293
As to the kind of experiment: cAMP induction, firefly luciferase reporter assay, glucagon receptor. Format: cell-based. The settings on record: for Activity at Glucagon Receptor % Relative Activity: compared to native glucagon. How it is done:
as §1, §2

The mark [1] stands for this setting: Activity at GLP-1 Receptor EC50 (nM), Table 2A.
Setting [2] is: EC50 (nM) at GLP-1 Receptor, Table 7B.

Starred links: 1 amine or outer side, 2 acyl side, 3 side chain; linkers in the order of their positions; H or OH if unused. Non-standard residues stand in square brackets, D forms with d. Residues, ends and D or L forms follow the SMILES beside them. Groups on a side chain read outwards from the residue. *: point of attachment. γGlu = O=C(O)[C@H](CCC(=O)[*:2])N[*:1]; Palmitoyl = CCCCCCCCCCCCCCCC(=O)*; Aib = CC(C)(N)C(=O)O

T1 sequence (P43220 24-463): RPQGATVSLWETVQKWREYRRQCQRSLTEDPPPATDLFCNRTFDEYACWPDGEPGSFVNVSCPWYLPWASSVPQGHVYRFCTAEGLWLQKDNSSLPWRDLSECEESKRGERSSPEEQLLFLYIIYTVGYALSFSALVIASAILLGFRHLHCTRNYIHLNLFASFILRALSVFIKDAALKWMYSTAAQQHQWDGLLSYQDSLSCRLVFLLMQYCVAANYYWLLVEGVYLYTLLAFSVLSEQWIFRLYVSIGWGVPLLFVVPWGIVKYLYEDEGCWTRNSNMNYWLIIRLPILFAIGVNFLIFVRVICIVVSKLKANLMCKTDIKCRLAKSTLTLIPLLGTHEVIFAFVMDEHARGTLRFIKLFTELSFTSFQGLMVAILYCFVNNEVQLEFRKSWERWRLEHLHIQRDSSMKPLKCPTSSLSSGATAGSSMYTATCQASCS
T2 sequence (P47871 26-477): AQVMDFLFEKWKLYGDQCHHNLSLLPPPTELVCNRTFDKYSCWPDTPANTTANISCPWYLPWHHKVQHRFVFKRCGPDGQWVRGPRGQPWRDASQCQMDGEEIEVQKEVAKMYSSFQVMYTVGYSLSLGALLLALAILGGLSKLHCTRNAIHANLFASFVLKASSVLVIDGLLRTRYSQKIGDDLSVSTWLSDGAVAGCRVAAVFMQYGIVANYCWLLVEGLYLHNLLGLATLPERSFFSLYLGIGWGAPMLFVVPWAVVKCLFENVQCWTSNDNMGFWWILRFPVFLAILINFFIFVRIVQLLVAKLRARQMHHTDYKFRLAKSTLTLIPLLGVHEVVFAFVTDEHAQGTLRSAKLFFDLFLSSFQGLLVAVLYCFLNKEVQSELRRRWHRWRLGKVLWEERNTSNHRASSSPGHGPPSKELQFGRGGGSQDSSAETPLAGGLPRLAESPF

`CSCC[C@H](NC(=O)[C@H](CC(C)C)NC(=O)[C@H](Cc1c[nH]c2ccccc12)NC(=O)[C@H](CCC(N)=O)NC(=O)[C@@H](NC(=O)[C@H](Cc1ccccc1)NC(=O)[C@H](CCC(=O)O)NC(=O)[C@H](CCC(N)=O)NC(=O)[C@H](C)NC(=O)[C@H](CCCNC(=N)N)NC(=O)[C@H](CCCCN)NC(=O)[C@H](CO)NC(=O)[C@H](CC(=O)O)NC(=O)[C@H](CC(C)C)NC(=O)[C@H](Cc1ccc(O)cc1)NC(=O)[C@H](CCCCN)NC(=O)[C@H](CO)NC(=O)[C@H](Cc1ccc(O)cc1)NC(=O)[C@H](CC(=O)O)NC(=O)[C@H](CO)NC(=O)[C@@H](NC(=O)[C@H](Cc1ccccc1)NC(=O)[C@@H](NC(=O)CNC(=O)[C@H](CCC(N)=O)NC(=O)[C@H](CO)NC(=O)[C@@H](N)Cc1c[nH]cn1)[C@@H](C)O)[C@@H](C)O)C(C)C)C(=O)N[C@@H](CC(N)=O)C(=O)N[C@H](C(N)=O)[C@@H](C)O` [Peptide 1]: on GLP-1 receptor (GLP-1 Receptor EC50 (nM), Table 1, HEK293 cells co-transfected with receptor and CRE-luciferase), the midpoint of the response, the EC50, lay at 0.13 nM. That is a sub-nanomolar value.
Regarding `CSCC[C@H](NC(=O)[C@H](CC(C)C)NC(=O)[C@H](Cc1c[nH]c2ccccc12)NC(=O)[C@H](CCC(N)=O)NC(=O)[C@@H](NC(=O)[C@H](Cc1ccccc1)NC(=O)[C@H](CCC(=O)O)NC(=O)[C@H](CCCCN)NC(=O)[C@H](C)NC(=O)[C@H](CCCNC(=N)N)NC(=O)[C@H](CCCCN)NC(=O)[C@H](CCC(=O)O)NC(=O)[C@H](CC(=O)O)NC(=O)[C@H](CC(C)C)NC(=O)[C@H](Cc1ccc(O)cc1)NC(=O)[C@H](CCCCN)NC(=O)[C@H](CO)NC(=O)[C@H](Cc1ccc(O)cc1)NC(=O)[C@H](CC(=O)O)NC(=O)[C@H](CO)NC(=O)[C@@H](NC(=O)[C@H](Cc1ccccc1)NC(=O)[C@@H](NC(=O)CNC(=O)[C@H](CCC(N)=O)NC(=O)[C@@H](CO)NC(=O)[C@@H](N)Cc1c[nH]cn1)[C@@H](C)O)[C@@H](C)O)C(C)C)C(=O)N[C@@H](CC(N)=O)C(=O)N[C@H](C(N)=O)[C@@H](C)O` [compound 20], the EC50 (in general, the concentration at which the effect is half-maximal) at GLP-1 receptor (setting [1]) came out at 0.284 nM; on glucagon receptor (Activity at Glucagon Receptor EC50 (nM), Table 2A), 0.054 nM.
Turning to `CSCC[C@H](NC(=O)[C@H](CC(C)C)NC(=O)[C@H](Cc1c[nH]c2ccccc12)NC(=O)[C@H](CCC(N)=O)NC(=O)[C@@H](NC(=O)[C@H](Cc1ccccc1)NC(=O)[C@H](CCC(=O)O)NC(=O)[C@H](CCCCN)NC(=O)[C@H](C)NC(=O)[C@H](CCCNC(=N)N)NC(=O)[C@H](CCCCN)NC(=O)C(C)(C)NC(=O)[C@H](CC(=O)O)NC(=O)[C@H](CC(C)C)NC(=O)[C@H](Cc1ccc(O)cc1)NC(=O)[C@H](CCCCN)NC(=O)[C@H](CO)NC(=O)[C@H](Cc1ccc(O)cc1)NC(=O)[C@H](CC(=O)O)NC(=O)[C@H](CO)NC(=O)[C@@H](NC(=O)[C@H](Cc1ccccc1)NC(=O)[C@@H](NC(=O)CNC(=O)[C@H](CCC(N)=O)NC(=O)[C@@H](CO)NC(=O)[C@@H](N)Cc1c[nH]cn1)[C@@H](C)O)[C@@H](C)O)C(C)C)C(=O)N[C@@H](CC(N)=O)C(=O)N[C@H](C(N)=O)[C@@H](C)O` [compound 21], the EC50 on GLP-1 receptor (setting [1]) turned out to be 0.048 nM.
Consider `CCCCCCCCCCCCCCCC(=O)N[C@@H](CCC(=O)NCCCC[C@H](NC(=O)[C@H](CC(=O)O)NC(=O)[C@H](CO)NC(=O)[C@@H](NC(=O)[C@H](Cc1ccccc1)NC(=O)[C@@H](NC(=O)CNC(=O)[C@H](CCC(N)=O)NC(=O)C(C)(C)NC(=O)[C@@H](N)Cc1c[nH]cn1)[C@@H](C)O)[C@@H](C)O)C(=O)N[C@@H](CO)C(=O)N[C@@H](CCCCN)C(=O)N[C@@H](Cc1ccc(O)cc1)C(=O)N[C@@H](CC(C)C)C(=O)N[C@@H](CC(=O)O)C(=O)N[C@@H](CCC(=O)O)C(=O)N[C@@H](CCC(=O)O)C(=O)N[C@@H](C)C(=O)N[C@H](C(=O)N[C@@H](CCCNC(=N)N)C(=O)N[C@@H](CC(C)C)C(=O)N[C@@H](Cc1ccccc1)C(=O)N[C@H](C(=O)N[C@@H](CCC(=O)O)C(=O)N[C@@H](Cc1c[nH]c2ccccc12)C(=O)N[C@@H](CC(C)C)C(=O)N[C@@H](CCSC)C(=O)N[C@@H](CC(N)=O)C(=O)N[C@H](C(N)=O)[C@@H](C)O)[C@@H](C)CC)C(C)C)C(=O)O` [compound 38] (H-H[Aib]QGTFTSDK([γGlu-Palmitoyl])SKYLDEEAVRLFIEWLMNT-NH2; N-terminus assumed), for which the EC50 at GLP-1 receptor (setting [2]) worked out at 0.019 nM.
As to `CCCCCCCCCCCCCCCC(=O)NCCCC[C@H](NC(=O)[C@H](CC(=O)O)NC(=O)[C@H](CO)NC(=O)[C@@H](NC(=O)[C@H](Cc1ccccc1)NC(=O)[C@@H](NC(=O)CNC(=O)[C@H](CCC(N)=O)NC(=O)C(C)(C)NC(=O)[C@@H](N)Cc1c[nH]cn1)[C@@H](C)O)[C@@H](C)O)C(=O)N[C@@H](CO)C(=O)N[C@@H](CCCCN)C(=O)N[C@@H](Cc1ccc(O)cc1)C(=O)N[C@@H](CC(C)C)C(=O)N[C@@H](CC(=O)O)C(=O)N[C@@H](CCC(=O)O)C(=O)N[C@@H](CCC(=O)O)C(=O)N[C@@H](C)C(=O)N[C@H](C(=O)N[C@@H](CCCNC(=N)N)C(=O)N[C@@H](CC(C)C)C(=O)N[C@@H](Cc1ccccc1)C(=O)N[C@H](C(=O)N[C@@H](CCC(=O)O)C(=O)N[C@@H](Cc1c[nH]c2ccccc12)C(=O)N[C@@H](CC(C)C)C(=O)N[C@@H](CCSC)C(=O)N[C@@H](CC(N)=O)C(=O)N[C@H](C(N)=O)[C@@H](C)O)[C@@H](C)CC)C(C)C` [compound 40] (H-H[Aib]QGTFTSDK(Palmitoyl)SKYLDEEAVRLFIEWLMNT-NH2; N-terminus assumed), it took 0.024 nM to reach a half-maximal effect at GLP-1 receptor (setting [2]) (EC50).
The compound `CCCCCCCCCCCCCCCC(=O)N[C@@H](CCC(=O)N[C@@H](CCC(=O)NCCCC[C@H](NC(=O)[C@H](CC(=O)O)NC(=O)[C@H](CO)NC(=O)[C@@H](NC(=O)[C@H](Cc1ccccc1)NC(=O)[C@@H](NC(=O)CNC(=O)[C@H](CCC(N)=O)NC(=O)C(C)(C)NC(=O)[C@@H](N)Cc1c[nH]cn1)[C@@H](C)O)[C@@H](C)O)C(=O)N[C@@H](CO)C(=O)N[C@@H](CCCCN)C(=O)N[C@@H](Cc1ccc(O)cc1)C(=O)N[C@@H](CC(C)C)C(=O)N[C@@H](CC(=O)O)C(=O)NC(C)(C)C(=O)N[C@@H](CCCNC(=N)N)C(=O)N[C@@H](C)C(=O)N[C@@H](C)C(=O)N[C@@H](CCC(N)=O)C(=O)N[C@@H](CC(=O)O)C(=O)N[C@@H](Cc1ccccc1)C(=O)N[C@H](C(=O)N[C@@H](CCC(N)=O)C(=O)N[C@@H](Cc1c[nH]c2ccccc12)C(=O)N[C@@H](CC(C)C)C(=O)N[C@@H](CCSC)C(=O)N[C@@H](CC(=O)O)C(=O)N[C@H](C(N)=O)[C@@H](C)O)C(C)C)C(=O)O)C(=O)O` [compound 42] (H-H[Aib]QGTFTSDK([γGlu-γGlu-Palmitoyl])SKYLD[Aib]RAAQDFVQWLMDT-NH2; N-terminus assumed) displayed an EC50 on GLP-1 receptor (Activity at GLP-1 Receptor EC50 [pM], Table 3A) of 0.005 nM. Also, the “Activity at GLP-1 Receptor % Relative Activity” value at GLP-1 receptor (Table 3A, compared to native GLP-1) is given as 500%. Moreover, at glucagon receptor (Table 3A), the “Activity at Glucagon Receptor % Relative Activity” value stood at 863%.
Turning to `CCCCCCCCCCCCCCCC(=O)N[C@@H](CCC(=O)NCCCC[C@H](NC(=O)[C@H](CC(=O)O)NC(=O)[C@H](CO)NC(=O)[C@@H](NC(=O)[C@H](Cc1ccccc1)NC(=O)[C@@H](NC(=O)CNC(=O)[C@H](CCC(N)=O)NC(=O)[C@H](CO)NC(=O)[C@H](Cc1c[nH]cn1)NC(C)=O)[C@@H](C)O)[C@@H](C)O)C(=O)N[C@@H](CO)C(=O)N[C@@H](CCCCN)C(=O)N[C@@H](Cc1ccc(O)cc1)C(=O)N[C@@H](CC(C)C)C(=O)N[C@@H](CC(=O)O)C(=O)N[C@@H](CCC(=O)O)C(=O)N[C@@H](CCC(N)=O)C(=O)N[C@@H](C)C(=O)N[C@@H](C)C(=O)N[C@@H](CCCCN)C(=O)N[C@@H](CCC(=O)O)C(=O)N[C@@H](Cc1ccccc1)C(=O)N[C@H](C(=O)N[C@@H](CS)C(=O)N[C@@H](Cc1c[nH]c2ccccc12)C(=O)N[C@@H](CC(C)C)C(=O)N[C@@H](CC(C)C)C(=O)N[C@@H](CC(=O)O)C(=O)N[C@H](C(N)=O)[C@@H](C)O)[C@@H](C)CC)C(=O)O` [compound 57] (Ac-HSQGTFTSDK([γGlu-Palmitoyl])SKYLDEQAAKEFICWLLDT-NH2), the “Activity at Glucagon Receptor % Relative Activity” value at glucagon receptor (Table 5) is on record as 1%.
On to `CC[C@H](C)[C@H](NC(=O)[C@H](Cc1ccccc1)NC(=O)[C@H](CC(C)C)NC(=O)[C@H](CCCNC(=N)N)NC(=O)[C@@H](NC(=O)[C@H](C)NC(=O)[C@H](CCC(N)=O)NC(=O)[C@H](CCC(=O)O)NC(=O)[C@H](CC(=O)O)NC(=O)[C@H](CC(C)C)NC(=O)[C@H](Cc1ccc(O)cc1)NC(=O)[C@H](CCCCN)NC(=O)[C@H](CO)NC(=O)[C@H](Cc1ccc(O)cc1)NC(=O)[C@H](CC(=O)O)NC(=O)[C@H](CO)NC(=O)[C@@H](NC(=O)[C@H](Cc1ccccc1)NC(=O)[C@@H](NC(=O)CNC(=O)[C@H](CCC(N)=O)NC(=O)[C@@H](CO)NC(=O)[C@@H](N)Cc1c[nH]cn1)[C@@H](C)O)[C@@H](C)O)C(C)C)C(=O)N[C@@H](CS)C(=O)N[C@@H](Cc1c[nH]c2ccccc12)C(=O)N[C@@H](CC(C)C)C(=O)N[C@@H](CC(C)C)C(=O)N[C@@H](CC(=O)O)C(=O)N[C@H](C(N)=O)[C@@H](C)O` [compound 87] (H-H[dS]QGTFTSDYSKYLDEQAVRLFICWLLDT-NH2; N-terminus assumed), for which the EC50 at GLP-1 receptor (setting [2]) worked out at 0.013 nM.

Values taken from patent US8703701B2 (Indiana University Research and Technology Corporation, priority 2009, dated 2014).
